Laboratory results reported in patent US20100126386A1, “RADIATION-CURABLE COATING SUBSTANCES” (Basf Aktiengesellschaft, priority 2004, published 2010).

test: Testing of the NIR sensitizers in photoinitiator mixtures (exposure of thin coats with halogen lamp); details: 0.5% by weight NIR sensitizer and 1.5% by weight boronate salt X in the paint base materials
Procedure: The two aforementioned paint base materials were admixed with 0.5% by weight of each NIR sensitizer and 1.5% by weight of the boronate salt X^− and the mixtures were stirred intensively. Thin coats (coat thickness approximately 50 μm) were produced with the resulting mixtures between two glass plates, using spacer sheets. These coats were exposed using a 250 W halogen lamp (distance approximately 15 cm) for 1 minute.

| SMILES | dissolution of the NIR sensitizer in the paint base material |
| --- | --- |
| CCN1/C(=C/C=C2\CCCC(/C=C/C3=[N+](CC)c4ccc(C(F)(F)F)cc4C3(C)C)=C2Cl)C(C)(C)c2cc(C(F)(F)F)ccc21 [Compound A11] | fully dissolved |
| CN1\C(=C/C=C/C=C/C=C/C2=[N+](C)c3ccc(Cl)cc3C2(C)C)C(C)(C)c2cc(Cl)ccc21 [Compound A7] | fully dissolved |
| CCN1/C(=C/C=C2\CCCC(/C=C/C3=[N+](CC)c4ccc(C#N)cc4C3(C)C)=C2Cl)C(C)(C)c2cc(C#N)ccc21 [Compound A12] | fully dissolved |
| CCN1/C(=C/C=C2\CCCC(/C=C/C3=[N+](CC)c4ccc(C(F)(F)F)cc4C3(C)C)=C2Cl)C(C)(C)c2cc(C(F)(F)F)ccc21 [Compound B11] | not completely dissolved |
| CN1\C(=C/C=C/C=C/C=C/C2=[N+](C)c3ccc(Cl)cc3C2(C)C)C(C)(C)c2cc(Cl)ccc21 [Compound B7] | not completely dissolved |
| CCN1/C(=C/C=C2\CCCC(/C=C/C3=[N+](CC)c4ccc(C#N)cc4C3(C)C)=C2Cl)C(C)(C)c2cc(C#N)ccc21 [Compound B12] | not completely dissolved |
